Values joined by “and” are separate entries in the source; they are usually repeats but may differ in a detail not shown here. Equal values may be shown once. Read-outs that look alike come from different tables or passages of the source.
Assays:
[1] = biological target: T1, DYRK1A catalytic domain (DYRK1A-ΔC) (Rattus norvegicus, UniProt Q63470); experiment: In vitro DYRK1A kinase inhibition, UFLC assay with fluorescent peptide substrate; assay type: biochemical; conditions: read-out: IC50, in vitro inhibition of DYRK1A
T1 construct: The cDNA coding for the catalytic domain (residues 1-502) of rat DYRK1A; 6xHis; made in house; host or cells: E. coli BL21(DE3), pET28

KB cells = experiment: KB cell proliferation / cytotoxicity (CellTiter-Blue); assay type: cell-based; conditions: Homo sapiens; for inhibition at 1 µM / inhibition at 10 µM: 72 h; for inhibition at 1 µM: 10^−6 M, read-out: % Growth inhibition 10^−6 M; for inhibition at 10 µM: 10^−5 M, read-out: % Growth inhibition 10^−5 M
Method: Cancer cell lines were obtained from the American Type Culture Collection (Rockville, MD, USA) and were cultured according to the supplier’s instructions. Briefly, human KB epidermal carcinoma cells were grown in Dulbecco minimal essential medium (DMEM) containing 4.5 g/L glucose supplemented with 10% fetal calf serum (FCS) and 1% glutamine, 100 UI penicillin, 100 µg/mL streptomycin and 1.5 µg/mL fungizone and maintained at 37 °C in a humidified atmosphere containing 5% CO2. Cell viability was assessed using Promega CellTiter-Blue TM reagent according to the manufacturer’s instructions. Cells were seeded in 96-well plates (5 × 10^3 cells/well) containing […]. After 24 h of culture, the cells were supplemented with […] of the studied compound dissolved in DMSO (less than 0.1% in each preparation). After 72 h of incubation, […] of resazurin was added for 2 h before recording fluorescence (λex = 560 nm, λem = 590 nm) using a Victor microtiter plate fluorimeter (Perkin-Elmer, USA).

DYRK1A = biological target: T2, DYRK1A (Homo sapiens, UniProt Q13627); experiment: Inhibition of tau phosphorylation by DYRK1A in cellulo (HEK293 co-transfected with DYRK1A and Tau, ClariCELL ELISA phospho-TauT212); assay type: cell-based
T2 construct: vectors encoding full-length human DYRK1A and Tau; host or cells: HEK293

[2] = set-up: method as in PMID 27194478; conditions: other drugs acting on the central nervous system; cited from earlier work
[3] = 3,5-diaryl-7-azaindoles 4a-4f, Fig. 4
[4] = 3,5-diaryl-7-azaindoles 5a-5g, Fig. 5

`COc1ccc(-c2cnc3[nH]cc(-c4ccc(F)cc4)c3c2)cc1OC` [Compound 4a] showed an IC50 [1, 3] of 1430 nM.
For `COc1ccc(-c2cnc3[nH]cc(-c4ccc(F)cc4)c3c2)c(OC)c1` [Compound 4b], the IC50 [1, 3] was 920 nM.
With `COc1ccc(-c2cnc3[nH]cc(-c4ccc(F)c(F)c4)c3c2)cc1OC` [Compound 4c] the IC50 [1, 3] was 5260 nM.
With `COc1ccc(-c2cnc3[nH]cc(-c4ccc(F)c(F)c4)c3c2)c(OC)c1` [Compound 4d] the IC50 [1, 3] was 37400 nM.
For `COc1ccc(-c2c[nH]c3ncc(-c4ccc(OCc5ccccc5)cc4)cc23)cc1F` [Compound 4e], the IC50 [1, 3] was 6090 nM.
In the case of `COc1ccc(-c2c[nH]c3ncc(-c4ccc(OCc5ccccc5)c(OCc5ccccc5)c4)cc23)cc1OC` [Compound 4f], the IC50 [1, 3] is reported as 18500 nM.
Molecule `Oc1ccc(-c2cnc3[nH]cc(-c4ccc(F)cc4)c3c2)c(O)c1` [Compound 5b] has an IC50 [1, 4] of 191 nM.
For `Oc1ccc(-c2cnc3[nH]cc(-c4ccc(F)c(F)c4)c3c2)cc1O` [Compound 5c], the IC50 [1, 4] was 56.6 nM and the inhibition at 1 µM (KB cells; KB) was 6 ± 2%.
`Oc1ccc(-c2cnc3[nH]cc(-c4ccc(F)c(F)c4)c3c2)c(O)c1` [Compound 5d] showed an IC50 [1, 4] of 232 nM.
`COc1ccc(-c2c[nH]c3ncc(-c4ccc(O)cc4)cc23)cc1F` [Compound 5e] showed an IC50 [1, 4] of 41.5 nM, an inhibition at 10 µM (KB cells) of 66 ± 3% and an inhibition at 1 µM (KB cells) of 30 ± 1%.
For `COc1ccc(-c2c[nH]c3ncc(-c4ccc(O)c(O)c4)cc23)cc1OC` [Compound 5f], the IC50 [1, 4] was 476 nM.
In the case of `Oc1ccc(-c2cnc3[nH]cc(-c4ccc(O)c(F)c4)c3c2)cc1` [Compound 5g], the IC50 [1, 4] is reported as 9.34 nM and 9.3 nM, the IC50 (DYRK1A; HEK293 transfected with DYRK1A and tau, 2 h incubation) is reported as 380 nM and the “Ratio between in cellulo and in vitro inhibitory potencies” value (DYRK1A; tau phosphorylation IC50 / in vitro DYRK1A IC50) is reported as 41. For the same molecule, the inhibition at 10 µM (KB cells; KB) was 95 ± 1%, the inhibition at 1 µM (KB cells; KB) was 46 ± 1% and the IC50 (KB cells; estimated, read-out: estimated IC50, KB cell growth inhibition) was roughly 1000 nM.
For `CC(NC(C)(C)C)C(=O)c1cccc(Cl)c1` (centres unmarked) [buproprion], the “Kp (brain concentration/plasma concentration)” value [2] is given as 4.97.
For `CNCCC(Oc1ccc(C(F)(F)F)cc1)c1ccccc1` (centres unmarked) [fluoxetine], the “Kp (brain concentration/plasma concentration)” value [2] is listed as 5.23.
For `OCCN1CCN(CCCN2c3ccccc3Sc3ccc(Cl)cc32)CC1` [perphenazine], the “Kp (brain concentration/plasma concentration)” value [2] is listed as 7.12.
